Measurements published in the NIST ThermoML archive (doi:10.1016/j.fluid.2016.02.009).

Details: Liquid, Vibrating tube method

CCCCOCC [butyl ethyl ether]
Details | mass density [kg/m3]
283.15 K, 100 kPa | 759.63
283.15 K, 5000 kPa | 764.45
283.15 K, 10000 kPa | 768.96
283.15 K, 15000 kPa | 773.2
283.15 K, 20000 kPa | 777.2
283.15 K, 25000 kPa | 781.05
283.15 K, 30000 kPa | 784.72
283.15 K, 35000 kPa | 788.24
283.15 K, 40000 kPa | 791.65
283.15 K, 45000 kPa | 794.97
283.15 K, 50000 kPa | 798.13
283.15 K, 55000 kPa | 801.25
283.15 K, 60000 kPa | 804.23
283.15 K, 65000 kPa | 807.14
288.15 K, 100 kPa | 754.84
288.15 K, 5000 kPa | 759.82
288.15 K, 10000 kPa | 764.48
288.15 K, 15000 kPa | 768.83
288.15 K, 20000 kPa | 772.96
288.15 K, 25000 kPa | 776.9
288.15 K, 30000 kPa | 780.66
288.15 K, 35000 kPa | 784.28
288.15 K, 40000 kPa | 787.77
288.15 K, 45000 kPa | 791.13
288.15 K, 50000 kPa | 794.37
288.15 K, 55000 kPa | 797.51
288.15 K, 60000 kPa | 800.57
288.15 K, 65000 kPa | 803.54
293.15 K, 100 kPa | 750.02
293.15 K, 5000 kPa | 755.18
293.15 K, 10000 kPa | 759.98
293.15 K, 15000 kPa | 764.45
293.15 K, 20000 kPa | 768.69
293.15 K, 25000 kPa | 772.75
293.15 K, 30000 kPa | 776.62
293.15 K, 35000 kPa | 780.33
293.15 K, 40000 kPa | 783.87
293.15 K, 45000 kPa | 787.34
293.15 K, 50000 kPa | 790.66
293.15 K, 55000 kPa | 793.86
293.15 K, 60000 kPa | 796.96
293.15 K, 65000 kPa | 799.99
298.15 K, 100 kPa | 745.17
298.15 K, 5000 kPa | 750.51
298.15 K, 10000 kPa | 755.44
298.15 K, 15000 kPa | 760.05
298.15 K, 20000 kPa | 764.43
298.15 K, 25000 kPa | 768.58
298.15 K, 30000 kPa | 772.55
298.15 K, 35000 kPa | 776.36
298.15 K, 40000 kPa | 780.01
298.15 K, 45000 kPa | 783.52
298.15 K, 50000 kPa | 786.91
298.15 K, 55000 kPa | 790.19
298.15 K, 60000 kPa | 793.36
298.15 K, 65000 kPa | 796.44
303.15 K, 100 kPa | 740.3
303.15 K, 5000 kPa | 745.81
303.15 K, 10000 kPa | 750.9
303.15 K, 15000 kPa | 755.66
303.15 K, 20000 kPa | 760.15
303.15 K, 25000 kPa | 764.45
303.15 K, 30000 kPa | 768.49
303.15 K, 35000 kPa | 772.35
303.15 K, 40000 kPa | 776.1
303.15 K, 45000 kPa | 779.71
303.15 K, 50000 kPa | 783.18
303.15 K, 55000 kPa | 786.51
303.15 K, 60000 kPa | 789.75
303.15 K, 65000 kPa | 792.89
308.15 K, 100 kPa | 735.39
308.15 K, 5000 kPa | 741.09
308.15 K, 10000 kPa | 746.35
308.15 K, 15000 kPa | 751.24
308.15 K, 20000 kPa | 755.87
308.15 K, 25000 kPa | 760.26
308.15 K, 30000 kPa | 764.45
308.15 K, 35000 kPa | 768.44
308.15 K, 40000 kPa | 772.26
308.15 K, 45000 kPa | 775.95
308.15 K, 50000 kPa | 779.48
308.15 K, 55000 kPa | 782.89
308.15 K, 60000 kPa | 786.19
308.15 K, 65000 kPa | 789.36
313.15 K, 100 kPa | 730.45
313.15 K, 5000 kPa | 736.34
313.15 K, 10000 kPa | 741.76
313.15 K, 15000 kPa | 746.82
313.15 K, 20000 kPa | 751.59
313.15 K, 25000 kPa | 756.09
313.15 K, 30000 kPa | 760.38
313.15 K, 35000 kPa | 764.5
313.15 K, 40000 kPa | 768.36
313.15 K, 45000 kPa | 772.14
313.15 K, 50000 kPa | 775.74
313.15 K, 55000 kPa | 779.22
313.15 K, 60000 kPa | 782.57
313.15 K, 65000 kPa | 785.85
318.15 K, 100 kPa | 725.44
318.15 K, 5000 kPa | 731.57
318.15 K, 10000 kPa | 737.2
318.15 K, 15000 kPa | 742.41
318.15 K, 20000 kPa | 747.31
318.15 K, 25000 kPa | 751.96
318.15 K, 30000 kPa | 756.38
318.15 K, 35000 kPa | 760.54
318.15 K, 40000 kPa | 764.55
318.15 K, 45000 kPa | 768.4
318.15 K, 50000 kPa | 772.07
318.15 K, 55000 kPa | 775.65
318.15 K, 60000 kPa | 779.08
318.15 K, 65000 kPa | 782.35
323.15 K, 100 kPa | 720.43
323.15 K, 5000 kPa | 726.77
323.15 K, 10000 kPa | 732.59
323.15 K, 15000 kPa | 738
323.15 K, 20000 kPa | 743.03
323.15 K, 25000 kPa | 747.78
323.15 K, 30000 kPa | 752.29
323.15 K, 35000 kPa | 756.59
323.15 K, 40000 kPa | 760.68
323.15 K, 45000 kPa | 764.61
323.15 K, 50000 kPa | 768.4
323.15 K, 55000 kPa | 771.97
323.15 K, 60000 kPa | 775.47
323.15 K, 65000 kPa | 778.87
328.15 K, 100 kPa | 715.37
328.15 K, 5000 kPa | 721.95
328.15 K, 10000 kPa | 727.94
328.15 K, 15000 kPa | 733.52
328.15 K, 20000 kPa | 738.72
328.15 K, 25000 kPa | 743.64
328.15 K, 30000 kPa | 748.27
328.15 K, 35000 kPa | 752.68
328.15 K, 40000 kPa | 756.87
328.15 K, 45000 kPa | 760.88
328.15 K, 50000 kPa | 764.73
328.15 K, 55000 kPa | 768.42
328.15 K, 60000 kPa | 771.99
328.15 K, 65000 kPa | 775.41
333.15 K, 100 kPa | 710.26
333.15 K, 5000 kPa | 717.05
333.15 K, 10000 kPa | 723.28
333.15 K, 15000 kPa | 729.03
333.15 K, 20000 kPa | 734.4
333.15 K, 25000 kPa | 739.43
333.15 K, 30000 kPa | 744.2
333.15 K, 35000 kPa | 748.71
333.15 K, 40000 kPa | 753.02
333.15 K, 45000 kPa | 757.13
333.15 K, 50000 kPa | 761.02
333.15 K, 55000 kPa | 764.8
333.15 K, 60000 kPa | 768.41
333.15 K, 65000 kPa | 771.92
